What was measured:
[1] = tested on: NF-κB and NLRP3 inflammasome-dependent IL-1β release; assay: LPS-induced IL-1β release in mice, measured by ELISA in plasma and peritoneal wash; format: in vivo; conditions: C57BL/6 mice, 100 mg/kg IP for 1 hour, then LPS 10 mg/kg IP for 2 hours
Experimental: (§1) While not wishing to be bound by theory, NLRP3 inflammasome activation is a mechanism that mediates the rejection of allotransplantation and in one embodiment of the described invention, it is a possible therapeutic target to treat allotransplantation of a heart. […] C57BL/6 mice were treated with SANA or salicylic acid (SA) (100 mg/kg, IP) or the vehicle (DMSO) for 1 hour. Then were injected with LPS (10 mg/kg, IP) or PBS for 2 hours, with subsequent peritoneal washes and blood extractions. Peritoneal wash and plasma were stored to measure IL-1β by ELISA. […] Rats were administrated with SANA or SA (100 mg/kg), SANA (50 mg/kg) or vehicle (Phosphate buffer) by oral gavage every day since day −1 until day 15 post-transplantation. Heart heterotopic transplantation was done by implantation of the donor heart (Lewis 1W rat) into the receptor abdomen (Lewis 1A rat). Rejection was diagnosed when the heart lost functionality (beats has stopped).

[2] = tested on: fully mismatched heterotopic heart allograft; assay: Fully mismatched heterotopic heart allograft survival in rats; format: in vivo, rat (Lewis 1W donor, Lewis 1A receptor); conditions: rat; SANA 100 mg/kg or 50 mg/kg by oral gavage daily from day −1 to day 15 post-transplantation; compared with control (vehicle) and precursor drug SA 100 mg/kg; FIG. 3
Experimental: as §1

O=C(O)c1cc(/C=C/[N+](=O)[O-])ccc1O [SANA, 2-hydroxy-5-(2-nitroethenyl)benzoic acid]
effect on NF-κB and NLRP3 inflammasome-dependent IL-1β release in the peritoneum ([1]; peritoneal wash, FIG. 2): inhibitory effect
effect on NF-κB and NLRP3 inflammasome-dependent IL-1β release in the plasma ([1]; plasma, FIG. 1): inhibitory effect
heart graft survival (rejection = heart beats stopped) [2]: prolonged the heart grafted survival

From patent US10632132B2, “Methods for treating heart transplant rejection” (priority 2018, dated 2020)
